Laboratory results published in patent US20250154145A1, “OXER1 ANTAGONISTS AND USES THEREOF” (Fairhaven Pharmaceuticals Ins., priority 2021, published 2025).

Test system: neutrophils
Assay: Neutrophil calcium flux assay (5-OXO-ETE-stimulated, Indo-1 fluorescence)
Type: cell-based
Conditions: 5-OXO-ETE-stimulated calcium flux
Protocol: After isolation, neutrophils were resuspended in PBS without calcium and Magnesium (PBS −/−) at a concentration of 5×10^6 cells/ml. 2ul of Indo-1 (1 mM) were added per ml of cells. After incubation at 37° C. for 30 minutes, cells were washed twice in PBS −/− and resuspended at 5×10^6 cells/ml in assay buffer (HBSS 1× with calcium and magnesium and […]). In a 96-well Black optical clear bottom plate 100 μL of neutrophil were dispensed to each well. After incubation at 37° C. for 5 minutes, 50 μL of assay buffer or 3× antagonist were added and incubated for 5 min in a Tecan Spark plate reader (Tecan, Morrisville, NC). Baseline was measured for 30 sec (wavelength setup: excitation: 331 nm and emission:410 nm). When baseline is stable, 50p of 5-OXO-ETE at 200 nM (4×) or HBSS was added to appropriate wells. Fluorescence was measured every 5 seconds for 30 cycles. Results are expressed as Net fluorescence (FLU minus Background and injection peak). All data were analyzed using GraphPad Prism version 9 for Windows (GraphPad, San Diego, CA).

SMILES	IC50 (Neutrophil) [nM]	IC50 [nM]
Cn1cc(-c2cccc(Cl)c2)c(C(=O)N2CC[C@H](C(=O)O)C2)c1CCCCOCc1cccc(Cl)c1 [Compound I-167]	> 300	
C[C@H](CC(=O)O)NC(=O)c1c(CCCCOCc2cccc(Cl)c2)n(C)c2ncc(C#N)cc12 [Compound I-238]	> 300	
C[C@@H](CC(=O)O)CC(=O)c1c(CCCCOCc2cccc(C#N)c2)n(C)c2ncc(C#N)cc12 [Compound I-384]	> 300	
C[C@H](CC(=O)O)CC(=O)c1c(CCCCOCc2cccc(F)c2)n(C)c2ncc(C#N)cc12 [Compound I-293]	< 100	
Cc1nc2c(cc1C#N)c(C(=O)CC(C)CC(=O)O)c(CCCCOCc1cccc(Cl)c1)n2C (centres unmarked) [Compound I-381]	> 300	
C[C@H](CC(=O)O)CC(=O)c1c(CCCCCOc2cnccn2)n(C)c2ccc(Cl)cc12 [Compound I-132]	> 300	
C[C@H](CC(=O)N[C@@H](Cc1ccccc1)C(=O)O)CC(=O)c1c(CCCCOCc2ccccc2)n(C)c2ncc(C#N)cc12 [Compound I-467]	> 300	
C[C@H](CC(=O)O)CC(=O)c1c(CCCCOCc2cccc(Cl)c2)[nH]c2ccc(Cl)cc12 [Compound I-189]	100 to 300	
C[C@H](CC(=O)O)CC(=O)c1c(CCCCCNc2ccccn2)n(C)c2ccc(Cl)cc12 [Compound I-128]	> 300	
Cn1c(CCCCCCC#CC2CC(F)(F)C2)c(C(=O)N2CC[C@H](C(=O)NS(C)(=O)=O)C2)c2cc(C#N)cnc21 [Compound I-363]	> 300	
C[C@H](CC(=O)O)CC(=O)c1c(CCCCCCc2cccc(Cl)c2)n(CCO)c2ncc(C#N)cc12 [Compound I-279]	< 100	
CC(CC(=O)O)CC(=O)c1c(CCCCOCc2cncnc2)n(C)c2ccc(C#N)cc12 (centres unmarked) [Compound I-393]	> 300	
CC(CC(=O)O)CC(=O)c1c(CCCCOCc2cccc(OC(F)(F)F)c2)n(C)c2cnc(Cl)cc12 (centres unmarked) [Compound I-412]	< 100	
CC(CC(=O)O)CC(=O)c1c(CCOCCNc2ccccc2)n(C)c2ncc(C#N)cc12 (centres unmarked) [Compound I-289]	100 to 300	
CC(CC(=O)O)CC(=O)c1c(CCCCCCc2cccc(Cl)c2)n(C[C@H](O)CO)c2ncc(C#N)cc12 (some centres unmarked) [Compound I-282]	> 300	
C[C@H](CC(=O)O)CC(=O)c1c(CCCCOCc2cccc(C#N)c2)n(C)c2c(F)cc(Cl)cc12 [Compound I-415]	> 300	
C[C@H](CC(=O)O)CC(=O)c1c(CCOCCCc2cccc(Cl)c2)n(C)c2ccc(Cl)cc12 [Compound I-62]	< 100	
CC(CC(=O)O)CC(=O)c1c(CCCCCC(O)c2cccc(C(=O)N(C)C)c2)n(C)c2ncc(C#N)cc12 (centres unmarked) [Compound I-314]	< 100	
C[C@H](CC(=O)O)CC(=O)c1c(CCCCCCc2cncs2)n(C)c2ncc(C#N)cc12 [Compound I-371]	< 100	
Cn1c(CCCCCCC#CC2CC(F)(F)C2)c(C(=O)N2CC[C@H](C(=O)O)C2)c2cc(Br)cnc21 [Compound I-345]	100 to 300	
CC(CC(=O)O)CC(=O)c1c(CCCCCC(O)c2ccc(F)c(Cl)c2)n(C)c2ncc(C#N)cc12 (centres unmarked) [Compound I-301]	< 100	
Cn1c(CCCCCCc2cccc(Cl)c2)c(C(=O)N2CC(CC(=O)O)C2)c2cc(Cl)cnc21 [Compound I-154]	> 300	

SMILES	IC50 (Neutrophil) [nM]	IC50 [nM]
C[C@H](CC(=O)O)CC(=O)c1c(CCCCCCc2cccc(Cl)c2)n(C)c2ncc(Cl)cc12 [Compound I-24]	> 300	
C[C@H](CC(=O)O)CC(=O)c1c(CCCCCCC#CC2CC(F)(F)C2)n(C)c2ncc(C#N)cc12 [Compound I-328]	< 100	
CC(CC(=O)O)CC(=O)c1c(CCCCOCc2ccc(F)c(Cl)c2)n(C)c2ncc(C#N)cc12 (centres unmarked) [Compound I-291]	< 100	
Cn1c(CCCCCCc2cccc(Cl)c2)c(C(=O)N2CC[C@H](c3nnn[nH]3)C2)c2cc(Cl)cnc21 [Compound I-149]	< 100	
C[C@@H](CC(=O)c1c(CCCCCCc2cccc(Cl)c2)n(C)c2ncc(Cl)cc12)Cc1nnn[nH]1 [Compound I-84]	< 100	
CC[C@H](CC(=O)O)CC(=O)c1c(CCCCOCc2ccccc2)n(C)c2ncc(C#N)cc12 [Compound I-438]	> 300	
C[C@H](CC(=O)NCC(=O)O)CC(=O)c1c(CCCCOCc2ccccc2)n(C)c2ncc(C#N)cc12 [Compound I-459]	> 300	
COc1cccc(COCCCCc2c(C(=O)CC(C)CC(=O)O)c3cc(Cl)cnc3n2C)c1 (centres unmarked) [Compound I-403]	100 to 300	
CC(CNC(=O)c1c(CCCCCCc2cccc(Cl)c2)n(C)c2ccc(Cl)cc12)C(=O)O (centres unmarked) [Compound I-241]	> 300	
Cn1c(CCCCOCc2ccccc2)c(C(=O)N2CC[C@H](C(=O)O)C2)c2cc(C#N)cnc21 [Compound I-178]	> 300	
C[C@H](CC(=O)O)CC(=O)c1c(CCCCCOCc2cccc(Cl)c2)n(C)c2ccc(C#N)cc12 [Compound I-425]	100 to 300	
CC(CC(=O)O)CC(=O)c1c(C[C@H]2CC[C@H](OCc3cccc(Cl)c3)CC2)n(C)c2ncc(C#N)cc12 (some centres unmarked) [Compound I-402]	100 to 300	
C[C@H](CC(=O)O)CC(=O)c1c(CCOCCNc2cccnc2)n(C)c2ccc(Cl)cc12 [Compound I-137]	> 300	
Cn1c(CCCCCCc2cccc(Cl)c2)c(C(=O)N2CCC[C@@H]2CC(=O)O)c2cc(Cl)ccc21 [Compound I-119]	> 300	
CC(CC(=O)O)CC(=O)c1c(CCCCOCc2cccc(C#N)c2)n(C)c2ncc(C(F)(F)F)cc12 (centres unmarked) [Compound I-417]	100 to 300	
CC(CCC(=O)c1c(CCCCCCc2cccc(Cl)c2)n(C)c2ccc(Cl)cc12)C(=O)O (centres unmarked) [Compound I-150]	> 300	
C[C@@H](CC(=O)O)CC(=O)c1c(CCCCOCc2cccc(C#N)c2)n(C)c2ncc(Cl)cc12 [Compound I-213]	> 300	
C[C@H](CC(=O)O)CC(=O)c1c(CCCCO[C@@H](C)c2ccccc2)n(C)c2ncc(C#N)cc12 [Compound I-432]	< 100	
COc1cc(COCCCCc2c(C(=O)CC(C)CC(=O)O)c3cc(Cl)cnc3n2C)ccn1 (centres unmarked) [Compound I-446]	> 300	
CC(CC(=O)O)CC(=O)c1c(CCCCOCc2ccc(Cl)cc2)n(C)c2ncc(C#N)cc12 (centres unmarked) [Compound I-290]	100 to 300	
C[C@@H](CC(=O)NS(C)(=O)=O)CC(=O)c1c(CCCCCCc2cccc(Cl)c2)n(C)c2ccc(Cl)cc12 [Compound I-15]	> 300	
Cn1c(CCCCOCc2ccccc2)c(C(=O)N2CC[C@H](C(=O)O)C2)c2cnccc21 [Compound I-441]	> 300	

SMILES	IC50 (Neutrophil) [nM]	IC50 [nM]
C[C@H](CC(=O)O)CC(=O)c1c(CCCCc2nc3cc(Cl)ccc3o2)n(C)c2ccc(Cl)cc12 [Compound I-145]	> 300	
CC(CC(=O)O)CC(=O)c1c(C[C@H]2CC[C@@H](OCc3cccc(Cl)c3)CC2)n(C)c2ncc(C#N)cc12 (some centres unmarked) [Compound I-399]	> 300	
C[C@H](OCCCCc1c(C(=O)N2CC[C@H](C(=O)O)C2)c2cc(C#N)cnc2n1C)c1ccccc1 [Compound I-453]	> 300	
COc1ccc2c(c1)c(C(=O)C[C@H](C)CC(=O)O)c(CCCCCCc1cccc(Cl)c1)n2C [Compound I-96]	< 100	
CC(CC(=O)O)CC(=O)c1c(CCCCOCc2cccc(Cl)c2)n(C)c2nccc(Cl)c12 (centres unmarked) [Compound I-379]	> 300	
CC(CC(=O)O)CC(=O)c1c(COCCOCc2cccc(Cl)c2)n(C)c2ccc(Cl)cc12 (centres unmarked) [Compound I-65]	100 to 300	
Cn1c(CCCCCCC#CC2CC(F)(F)C2)c(C(=O)N2CC[C@H](C(=O)O)C2)c2cc(C#N)cnc21 [Compound I-340]	< 100	
CC(CC(=O)O)CC(=O)c1c(CCCCCC(O)c2cccc(C(=O)N(C)C)c2)n(C)c2ncc(C#N)cc12 (single isomer, unassigned) [Compound I-316]		> 300
C[C@@H](CC(=O)O)CC(=O)c1c(CCCCOCc2cccc(OC(F)(F)F)c2)n(C)c2ncc(C#N)cc12 [Compound I-390]	> 300	
CC(CC(=O)O)CC(=O)c1c(CCCCOCc2cncnc2)n(C)c2ncc(C#N)cc12 (centres unmarked) [Compound I-388]	> 300	
CC(CC(=O)O)CC(=O)c1c(CCCCOCc2cccc(Cl)c2)n(C)c2ncc(CN(C)C)cc12 (centres unmarked) [Compound I-375]	> 300	
C[C@H](CC(=O)O)CC(=O)c1c(CCCCCC#CC2CC(F)(F)C2)n(C)c2ccc(Cl)cc12 [Compound I-330]	> 300	
Cn1c(CCCCCCC#CC2CC(F)(F)C2)c(C(=O)N2CC[C@H](c3nnn[nH]3)C2)c2cc(C#N)cnc21 [Compound I-354]	< 100	
CC(CC(=O)O)CC(=O)c1c(CCCCCC(O)c2cccc(C(=O)N(C)C)c2)n(C)c2ncc(C#N)cc12 (single isomer, unassigned) [Compound I-318]		100 to 300
C[C@@H](CC(=O)c1c(CCCCOCc2ccccc2)n(C)c2ncc(C#N)cc12)Cc1nnn[nH]1 [Compound I-359]	< 100	
C[C@H](CC(=O)O)CC(=O)c1c(CCCCOCc2ccccc2)n(C)c2ncc(Cl)cc12 [Compound I-99]	100 to 300	
C[C@H](CC(=O)O)CC(=O)c1c(COCCCCC#CC2CC(F)(F)C2)n(C)c2ccc(Cl)cc12 [Compound I-327]	< 100	
CC(C)C#CCCCCCc1c(C(=O)C[C@H](C)CC(=O)O)c2cc(Cl)ccc2n1C [Compound I-114]	> 300	
Cn1c(CCCCOCc2ccccc2)c(C(=O)CC(CC(=O)O)C(F)(F)F)c2cc(C#N)cnc21 (centres unmarked) [Compound I-440]	> 300	
CC(CC(=O)O)CC(=O)c1c(CCCCOCc2cccc(Cl)c2)n(C[C@@H](O)CO)c2ncc(Cl)cc12 (some centres unmarked) [Compound I-376]	> 300	
C[C@H](CC(=O)O)CC(=O)c1c(CCCCCOCc2ccccc2)n(C)c2ncc(C#N)cc12 [Compound I-422]	100 to 300	
